US5939098A, “Cancer treatment with temozolomide” (Schering Corporation, priority 1997, dated 1999)

Assays:
advanced melanoma [1] = conditions: patients having advanced melanoma; Newlands ES, et al. Br J Cancer 65 (2), 1992; cited from earlier work
advanced melanoma [2] = conditions: patients with advanced melanoma; Journal of Clinical Oncology, Vol 13, No. 4, 1995, pp 910-913; cited from earlier work
[3] = side effects of temozolomide administration; assay type: in vivo, patient; conditions: can be alleviated by an anti-emetic
Method: It is preferred that the anti-emetic Ondansetron be given p.o. in a dose of about 8 mg about 30 minutes before temozolomide administration. Of course other anti-emetics such as Hasaldol, Benadryl, and Ativan may also be used as needed.

[4] = parameters: species or system patient; conditions: human, in vivo
Method: Prior to this invention it was generally believed that administering temozolomide to a patient having food in their stomach or to a patient who consumed food too soon before or after administering of the temozolomide would interfere with the bioiavailability of the temozolomide. A fasting of about 8 hours, before administering of temozolomide and 4 hours after receiving temozolomide was believed necessary. Since two twelve-hour fasting periods per day would obviously be unacceptable, it was believed that temozolomide could be administered a maximum of once per day. […] Therefore long fasting periods before and after administration of temozolomide are not necessary. Dosing with temozolomide more than once per day may improve the effectiveness of the treatment. This is so because increasing the frequency of dosing may deplete the O^6 -aklylguanine DNA alkyltransferase more effectively and maintain the depletion of this repair enzyme, resulting therefore in better effectiveness of the drug.

Which results are given for Cn1nnc2c(C(N)=O)ncn2c1=O [temozolomide, 3,4-dihydro-3-methyl-4-oxoimidazo-[5,1-d]1,2,3,4-tetrazin-8-carboximide]?
clinical responses achieved, % of patients (advanced melanoma [1]): 17%; clinical response achieved, % of patients (advanced melanoma [2]): 21%; common, but tolerable side effect [3]: nausea and vomiting; Area Under Curve (AUC) for those fed as % of AUC for those fasted [4]: about 90%
